According to patent publication US4207326A, “Antimicrobial quaternary pyrazole derivatives” (Cilag-Chemie A.G., priority 1979, dated 1980):

Tested on: S. aureus
Test: Antibacterial activity: Minimum Inhibitory Concentration
Format: cell-based, Staphylococcus aureus ATCC 6538
Details: Day 1, 37° C., 24 hours
Experimental: (§1) The antimicrobial activity was determined by inoculation of the test microorganism into suitable growth media containing solutions of the compounds at concentrations of 100, 50, 10, 5, 1.0, 0.5 and 0.1 μg/ml. The reference antibiotics used were Gentamicin for the antibacterial tests and Amphotericin B for the antimycotic and antifungal tests. After incubation the antimicrobial activity was recorded as the Minimal Inhibitory Concentration (M.I.C.), i.e., the lowest concentration preventing macroscopically visible growth, for each test compound against each organism.
(§2) An initial solution of each formula (I) compound to be tested in sterile distilled water was prepared at a concentration of 1000 μg/ml. With appropriate dilutions using sterile distilled water, additional solutions were prepared at concentrations of 500, 100, 50, 10, 5 and 1 μg/ml.
(§3) They were cultured and maintained on Tryptone Soy Agar (Oxoid CM 131), with the addition of 10% horse blood for the S. pyogenes.
(§4) To prepare the organisms as inocula for the test, slopes of this medium were streaked with the organisms and incubated at 37° C. for 24 hours. 4.5 Ml volumes of Brian-Heart Infusion Broth (Oxoid CM 225) were then inoculated with a platinum loop from the agar slope cultures and incubated for 24 hours at 37° C. The final inocula were then prepared by adding 0.1 ml aliquots of the Brain-Heart Infusion Broth cultures to 100 ml volumes of sterile physiological saline.
(§5) (a) For the test on each of the bacterial strains and each of the test and reference compounds, a series of 8 tubes containing 4.5 ml volumes of Brain-Heart Infusion Broth (Oxoid CM 225) were prepared. To 7 of these were added 0.5 ml volumes of the final solutions of the test compouns, giving final concentrations in the broths of 100, 50, 10, 5, 1.0, 0.5 and 0.1 μg/ml. To the eighth tube in each series was added 0.5 ml of the solvent used and diluted as for the preparation of the 1000 μg/ml solution of the compound. This tube was used as the growth control. The tubes were inoculated with 0.02 ml aliquots of the inocula prepared in accordance with "(a) Bacteria" above, and incubated at 37° C. for 24 hours. The tubes were then examined for evidence of bacterial growth as shown by turbidity of the medium and the lowest concentration of the test compound which prevented bacterial growth was recorded as the Minimal Inhibitory Concentration. This test procedure was carried out on two separate days.

Molecule | Minimum Inhibitory Concentration [µg/mL]
2,3(5)-dimethyl-1-dodecyl-pyrazolium methosulfate [Example 8-A] | 1
2,3(5)-dimethyl-1-hexadecyl-pyrazolium methosulfate [Example 9] | 0.5

Same assay, conditions: Day 2, 37° C., 24 hours

Molecule | Minimum Inhibitory Concentration [µg/mL]
2,3(5)-dimethyl-1-dodecyl-pyrazolium methosulfate [Example 8-A] | 0.5
2,3(5)-dimethyl-1-hexadecyl-pyrazolium methosulfate [Example 9] | 0.5

Same assay, conditions: Staphylococcus aureus, Day 1, 37° C., 24 hours

Molecule | MIC [µg/mL]
CCCCCCCCCCCCn1c(C)cc(C)[n+]1C [Example 1, 1-dodecyl-2,3,5-trimethyl-pyrazolium methosulfate] | 5
CCCCCCCCCCCCCCCCn1c(C)cc(C)[n+]1C [Example 2, 1-hexadecyl-2,3,5-trimethyl-pyrazolium methosulfate] | 0.5

Same assay, conditions: Staphylococcus aureus, Day 2, 37° C., 24 hours

Molecule | MIC [µg/mL]
CCCCCCCCCCCCn1c(C)cc(C)[n+]1C [Example 1, 1-dodecyl-2,3,5-trimethyl-pyrazolium methosulfate] | 5
CCCCCCCCCCCCCCCCn1c(C)cc(C)[n+]1C [Example 2, 1-hexadecyl-2,3,5-trimethyl-pyrazolium methosulfate] | 0.5

Tested on: P. aeruginosa
Test: as above
Format: cell-based, Pseudomonas aeruginosa ATCC 9027
Details: P. aeruginosa, Day 1; 37° C., 24 hours
Experimental: as §1, §2, §3, §4, §5

Molecule | Minimum Inhibitory Concentration [µg/mL]
2,3(5)-dimethyl-1-dodecyl-pyrazolium methosulfate [Example 8-A] | 50
2,3(5)-dimethyl-1-hexadecyl-pyrazolium methosulfate [Example 9] | 10

Same assay, conditions: P. aeruginosa, Day 2; 37° C., 24 hours

Molecule | Minimum Inhibitory Concentration [µg/mL]
2,3(5)-dimethyl-1-dodecyl-pyrazolium methosulfate [Example 8-A] | 50
2,3(5)-dimethyl-1-hexadecyl-pyrazolium methosulfate [Example 9] | 10

Same assay, conditions: Pseudomonas aeruginosa; P. aeruginosa, Day 1; 37° C., 24 hours; read-out: Minimum Inhibitory Concentration

Molecule | MIC [µg/mL]
CCCCCCCCCCCCn1c(C)cc(C)[n+]1C [Example 1, 1-dodecyl-2,3,5-trimethyl-pyrazolium methosulfate] | 50
CCCCCCCCCCCCCCCCn1c(C)cc(C)[n+]1C [Example 2, 1-hexadecyl-2,3,5-trimethyl-pyrazolium methosulfate] | 10

Same assay, conditions: Pseudomonas aeruginosa; P. aeruginosa, Day 2; 37° C., 24 hours; read-out: Minimum Inhibitory Concentration

Molecule | MIC [µg/mL]
CCCCCCCCCCCCn1c(C)cc(C)[n+]1C [Example 1, 1-dodecyl-2,3,5-trimethyl-pyrazolium methosulfate] | 10
CCCCCCCCCCCCCCCCn1c(C)cc(C)[n+]1C [Example 2, 1-hexadecyl-2,3,5-trimethyl-pyrazolium methosulfate] | 5

Tested on: C. neoformans
Test: Antimycotic activity: Minimum Inhibitory Concentration
Format: cell-based, Cryptococcus neoformans NCPF 3184
Details: C. neoformans, Day 1; pH 5.5, 30° C., 72 hours
Experimental: as §1, §2
The C. neoformans was also maintained on Sabouraud-Dextrose Agar (Oxoid CM 41), but in this case cultures for the preparation of the inoculum were incubated on this agar at 30° C. for 48 hours. A 4.5 ml volume of citric acid-phosphate buffer pH 5.5 plus Yeast-Nitrogen Base (Difco-0392-15) was then inoculated from the agar culture and incubated at 30° C. for 48 hours. A 0.1 ml aliquot of this culture was then added to 100 ml sterile physiological saline to give the final inoculum.
(b) For the tests on each of the C. albicans, C. tropicalis and C. neoformans strains and each of the test and reference compounds, a series of 8 tubes containing 4.5 ml volumes of citric acid-phosphate buffer pH 5.5 plus Yeast-Nitrogen Base (Difco 0392-15) were prepared. To 7 of these were added 0.5 ml volumes of the final solutions of the test compounds, giving final concentrations in the broths of 100, 50, 10, 5, 1.0, 0.5 and 0.1 μg/ml. To the eighth tube in each series was added 0.5 ml of the solvent used and diluted as for the preparation of the 1000 μg/ml solution of the compound. This tube was used as the growth control. The tubes were then inoculated with 0.1 ml aliquots of the inocula prepared as in "(b) Fungi" above. The tubes inoculated with the C. albicans and C. tropicalis were inoculated at 37° C. for 72 hours and the tubes inoculated with the C. neoformans straim were incubated at 30° C. for 72 hours. […] The tubes were then examined for evidence of growth as shown by turbidity of the medium and the lowest concentration of the test compound which prevented fungal growth was recorded as the Minimal Inhibitory Concentration. This test procedure was carried out on two separate days.

Molecule | Minimum Inhibitory Concentrations [µg/mL]
2,3(5)-dimethyl-1-dodecyl-pyrazolium methosulfate [Example 8-A] | 5
2,3(5)-dimethyl-1-hexadecyl-pyrazolium methosulfate [Example 9] | 1

Same assay, conditions: C. neoformans, Day 2; pH 5.5, 30° C., 72 hours

Molecule | Minimum Inhibitory Concentrations [µg/mL]
2,3(5)-dimethyl-1-dodecyl-pyrazolium methosulfate [Example 8-A] | 1
2,3(5)-dimethyl-1-hexadecyl-pyrazolium methosulfate [Example 9] | 0.5

Same assay, conditions: Cryptococcus neoformans, pH 5.5, C. neoformans, Day 1; pH 5.5, 30° C., 72 hours; read-out: Minimum Inhibitory Concentrations

Molecule | MIC [µg/mL]
CCCCCCCCCCCCn1c(C)cc(C)[n+]1C [Example 1, 1-dodecyl-2,3,5-trimethyl-pyrazolium methosulfate] | 0.5
CCCCCCCCCCCCCCCCn1c(C)cc(C)[n+]1C [Example 2, 1-hexadecyl-2,3,5-trimethyl-pyrazolium methosulfate] | 0.5

Same assay, conditions: Cryptococcus neoformans, pH 5.5, C. neoformans, Day 2; pH 5.5, 30° C., 72 hours; read-out: Minimum Inhibitory Concentrations

Molecule | MIC [µg/mL]
CCCCCCCCCCCCn1c(C)cc(C)[n+]1C [Example 1, 1-dodecyl-2,3,5-trimethyl-pyrazolium methosulfate] | 0.5
CCCCCCCCCCCCCCCCn1c(C)cc(C)[n+]1C [Example 2, 1-hexadecyl-2,3,5-trimethyl-pyrazolium methosulfate] | 0.5

Tested on: A. fumigatus
Test: Antifungal activity: Minimum Inhibitory Concentration
Format: cell-based, Aspergillus fimigatus (A. fumigatus) NCPF 2140
Details: A. fumigatus, Day 1; 27° C., one week
Experimental: as §1, §2
(§6) The A. corymbifera, A. fumigatus, S. schenkii, T. rubrum, T. mentagrophytes, M. canis and P. verrucosa strains were all maintained on Sabouraud-Dextrose Agar (Oxoid CM 41) by incubating for 14 days at 27° C. To prepare the inocula 30 ml volumes of Sabouraud-Liquid medium (Oxoid CM 147) were inoculated from the agar cultures and incubated at 27° C. until heavy uniform growth resulted. The mycelial growth was then broken up by shaking with glass beads.
(§7) 1 Ml aliquots were removed from each of the cultures for the purpose of making viable counts and the cultures were then held at 4° C. The viable counts were made by preparing serial ten-fold dilutions of the cultures in sterile physiological saline and spreading on plates of Sabouraud-Dextrose Agar (Oxoid CM 41) which were then incubated at 27° C. for 14 days. When the viable counts had confirmed that each of the inocula contained approximately 10^6 colony forming units (C.F.U.) per ml the cultures were withdrawn from the refrigerator and used as the inocula for the tests.
(§8) (c) For the tests on each of the remaining seven strains and each of the test and reference compounds, a series of 8 tubes containing 4.5 ml volumes of Sabouraud-Liquid Medium (Oxoid CM 147) were prepared. To 7 of these were added 0.5 ml volumes of the final solutions of the test compounds, giving final concentrations in the broths of 100, 50, 10, 5, 1.0, 0.5 and 0.1 μg/ml. To the eighth tube in each series was added 0.5 ml of the solvent used and diluted as for the preparation of the 500 μg/ml solution of the compound. This tube was used as a growth control. The tubes were then inoculated with 0.1 ml aliquots of the inocula prepared as in "(b) Fungi" above. The tubes were then incubated at 27° C. with continuous shaking for a period of one week. The tubes were then examined for evidence of growth as shown by the presence of mycelial growth in the medium and the lowest concentration of the test compound which prevented fungal growth was recorded as the Minimal Inhibitory Concentration. This test procedure was carried out on two separate days.

Molecule | Minimum Inhibitory Concentration [µg/mL]
2,3(5)-dimethyl-1-dodecyl-pyrazolium methosulfate [Example 8-A] | 100
2,3(5)-dimethyl-1-hexadecyl-pyrazolium methosulfate [Example 9] | 5

Same assay, conditions: A. fumigatus, Day 2; 27° C., one week

Molecule | Minimum Inhibitory Concentration [µg/mL]
2,3(5)-dimethyl-1-dodecyl-pyrazolium methosulfate [Example 8-A] | 100
2,3(5)-dimethyl-1-hexadecyl-pyrazolium methosulfate [Example 9] | 10

Same assay, conditions: Aspergillus fumigatus, A. fumigatus, Day 1; 27° C., one week; read-out: Minimum Inhibitory Concentration

Molecule | MIC [µg/mL]
CCCCCCCCCCCCn1c(C)cc(C)[n+]1C [Example 1, 1-dodecyl-2,3,5-trimethyl-pyrazolium methosulfate] | 100
CCCCCCCCCCCCCCCCn1c(C)cc(C)[n+]1C [Example 2, 1-hexadecyl-2,3,5-trimethyl-pyrazolium methosulfate] | 10

Same assay, conditions: Aspergillus fumigatus, A. fumigatus, Day 2; 27° C., one week; read-out: Minimum Inhibitory Concentration

Molecule | MIC [µg/mL]
CCCCCCCCCCCCn1c(C)cc(C)[n+]1C [Example 1, 1-dodecyl-2,3,5-trimethyl-pyrazolium methosulfate] | > 100
CCCCCCCCCCCCCCCCn1c(C)cc(C)[n+]1C [Example 2, 1-hexadecyl-2,3,5-trimethyl-pyrazolium methosulfate] | 5

Tested on: S. schenkii
Test: as above
Format: cell-based, Sporotrichon schenkii NCPF 3182
Details: S. schenkii, Day 1; 27° C., one week
Experimental: as §1, §2, §6, §7, §8

Molecule | Minimum Inhibitory Concentration [µg/mL]
2,3(5)-dimethyl-1-dodecyl-pyrazolium methosulfate [Example 8-A] | 10
2,3(5)-dimethyl-1-hexadecyl-pyrazolium methosulfate [Example 9] | 5

Same assay, conditions: S. schenkii, Day 1; 27° C., one week; read-out: Minimum Inhibitory Concentration

Molecule | MIC [µg/mL]
CCCCCCCCCCCCn1c(C)cc(C)[n+]1C [Example 1, 1-dodecyl-2,3,5-trimethyl-pyrazolium methosulfate] | 50
CCCCCCCCCCCCCCCCn1c(C)cc(C)[n+]1C [Example 2, 1-hexadecyl-2,3,5-trimethyl-pyrazolium methosulfate] | 10

Same assay, conditions: S. schenkii, Day 2; 27° C., one week

Molecule | Minimum Inhibitory Concentration [µg/mL]
2,3(5)-dimethyl-1-dodecyl-pyrazolium methosulfate [Example 8-A] | 10
2,3(5)-dimethyl-1-hexadecyl-pyrazolium methosulfate [Example 9] | 5

Same assay, conditions: S. schenkii, Day 2; 27° C., one week; read-out: Minimum Inhibitory Concentration

Molecule | MIC [µg/mL]
CCCCCCCCCCCCn1c(C)cc(C)[n+]1C [Example 1, 1-dodecyl-2,3,5-trimethyl-pyrazolium methosulfate] | 10
CCCCCCCCCCCCCCCCn1c(C)cc(C)[n+]1C [Example 2, 1-hexadecyl-2,3,5-trimethyl-pyrazolium methosulfate] | 10

Tested on: T. rubrum
Test: as above
Format: cell-based, Trichophyton rubrum NCPF 197
Details: T. rubrum, Day 1; 27° C., one week
Experimental: as §1, §2, §6, §7, §8

Molecule | Minimum Inhibitory Concentration [µg/mL]
2,3(5)-dimethyl-1-dodecyl-pyrazolium methosulfate [Example 8-A] | 5
2,3(5)-dimethyl-1-hexadecyl-pyrazolium methosulfate [Example 9] | 5

Same assay, conditions: T. rubrum, Day 2; 27° C., one week

Molecule | Minimum Inhibitory Concentration [µg/mL]
2,3(5)-dimethyl-1-dodecyl-pyrazolium methosulfate [Example 8-A] | 10
2,3(5)-dimethyl-1-hexadecyl-pyrazolium methosulfate [Example 9] | 5

Same assay, conditions: Trichophyton rubrum, T. rubrum, Day 1; 27° C., one week; read-out: Minimum Inhibitory Concentration

Molecule | MIC [µg/mL]
CCCCCCCCCCCCn1c(C)cc(C)[n+]1C [Example 1, 1-dodecyl-2,3,5-trimethyl-pyrazolium methosulfate] | 10
CCCCCCCCCCCCCCCCn1c(C)cc(C)[n+]1C [Example 2, 1-hexadecyl-2,3,5-trimethyl-pyrazolium methosulfate] | 5

Same assay, conditions: Trichophyton rubrum, T. rubrum, Day 2; 27° C., one week; read-out: Minimum Inhibitory Concentration

Molecule | MIC [µg/mL]
CCCCCCCCCCCCn1c(C)cc(C)[n+]1C [Example 1, 1-dodecyl-2,3,5-trimethyl-pyrazolium methosulfate] | 10
CCCCCCCCCCCCCCCCn1c(C)cc(C)[n+]1C [Example 2, 1-hexadecyl-2,3,5-trimethyl-pyrazolium methosulfate] | 5
